Tests used:
[1] = test system: KT21 cells; assay: Immunoblot of signaling pathways; assay type: cell-based
Experimental: Protein concentration was determined, and equal amount of total proteins were separated by SDS-PAGE. Antibodies used included those for Pak1 (2602), Pak2 (2608), Pak3 (2609), Pak4 (3242), phospho-Pak4-6 (3241), Mek1 (9122), Erk (9102), phospho-Erk1/2 (pThr202/pTyr204; 9101), Akt (9272), phospho-Akt (pThr308; 9275), S6 (2217), phospho-S6 (pSer235/pSer236; 4857), phospho-β-Catenin (pSer675; 4176), and cyclin D1 (2978) from Cell Signaling Technology; β-Catenin (610154) from BD Transduction Laboratories; and phospho-Pak (Ser141; 44940G) and phospho-Mek (Ser298; 44460G) from Invitrogen. GAPDH and β-actin were used as loading control.

[2] = molecular target: Pak1 (Homo sapiens, UniProt Q13153); assay: Pak1 inhibition in vitro; assay type: biochemical; conditions: read-out: IC50 values towards Pak1
Chain of Pak1 (Q13153 whole entry): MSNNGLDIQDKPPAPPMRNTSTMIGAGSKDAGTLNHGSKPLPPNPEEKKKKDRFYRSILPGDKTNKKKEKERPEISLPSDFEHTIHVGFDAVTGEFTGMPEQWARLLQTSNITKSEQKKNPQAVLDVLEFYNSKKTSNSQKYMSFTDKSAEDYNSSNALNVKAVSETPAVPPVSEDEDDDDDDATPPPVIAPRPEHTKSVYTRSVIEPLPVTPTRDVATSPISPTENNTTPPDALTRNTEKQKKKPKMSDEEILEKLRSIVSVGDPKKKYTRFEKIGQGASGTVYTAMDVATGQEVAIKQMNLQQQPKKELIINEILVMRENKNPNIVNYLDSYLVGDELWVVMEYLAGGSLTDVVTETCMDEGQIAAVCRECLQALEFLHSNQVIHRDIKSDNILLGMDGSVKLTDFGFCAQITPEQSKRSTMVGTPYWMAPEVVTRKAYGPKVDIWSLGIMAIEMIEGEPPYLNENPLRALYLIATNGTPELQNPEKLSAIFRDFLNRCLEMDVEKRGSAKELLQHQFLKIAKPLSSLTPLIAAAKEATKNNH

Row | Compound | total and phospho-protein levels of β-catenin [1] | IC50 [2]
1 | Cc1nc(Nc2[nH]nc3c2CN(C(=O)N[C@H](CN(C)C)c2ccccc2)C3(C)C)c2sccc2n1 [PF3758309, reference compound] | only reduction on phosphorylation status | –
2 | CCn1c(=O)c(-c2ccc(-c3noc(C)n3)cc2Cl)cc2cnc(Nc3ccc(C4CCN(C)CC4)cc3)nc21 [Frax716] | – | 2 nM

— PMC4385830, “Group I Paks as therapeutic targets in NF2-deficient meningioma” (Oncotarget, 2015)
